This experiment relates to Plasmodium berghei. Description: Luciferase/luciferin-expressing antifolate-resistant parasites were used to infect a culture of HepG2 cells that were pre-incubated with compounds. Infected hepatocytes emit light due to the luciferase reaction. Assay results are presented as the percent inhibition of light emission compared to control. […]. In kind it is functional. Conditions: sporozoite; for IC90: read-out: LUCIFERASE INFECTION ASSAY - IC90.

[1] abbreviates: read-out: LUCIFERASE INFECTION ASSAY - IC50.

The results in this text go back to ChEMBL document CHEMBL4483862, “Open-source discovery of chemical leads for next-generation chemoprotective antimalarials” (2018).

Bounds are passed on as bounds.

One may read the IC50 as the point on the concentration scale where inhibition reaches its midpoint. One may read the IC90 as the concentration needed for an effect of 90%. On to `CNc1snc(C)c1C(=O)N(C)Cc1ccc(OC(F)(F)F)cc1`, for which the IC90 came out at 2.72 µM. The IC50 (HEPG2TOX_HILL_SLOPE 0.114, HEPG2TOX_R_SQUARED 0.0245, PBLUC_HILL_SLOPE 2.54, PBLUC_R_SQUARED 0.592, read-out: LUCIFERASE INFECTION ASSAY - IC50) was 1.15 µM.

In the case of `CC1CC(C)CN(Cc2ccc(C(=O)Nc3ccccc3)cc2)C1` (stereo not given), the 90% effect concentration (IC90) is 7.47 µM. The IC50 (HEPG2TOX_HILL_SLOPE 11.8, HEPG2TOX_R_SQUARED 0.877, PBLUC_HILL_SLOPE 2.66, PBLUC_R_SQUARED 0.557, read-out: LUCIFERASE INFECTION ASSAY - IC50) turned out to be 3.28 µM.

On to `CC(C)Cn1c(-c2ccccc2F)nc2c(c(=O)c3ccccc3n2C)c1=O`, for which the IC90 stood at 7.64 µM. Besides, the IC50 (PBLUC_HILL_SLOPE 4.02, PBLUC_R_SQUARED 0.715, read-out: LUCIFERASE INFECTION ASSAY - IC50) amounted to 4.42 µM.

Turning to `O=C(Nc1nc2ccccc2[nH]1)C1CCN(c2ncc(C(F)(F)F)cc2Cl)CC1`, the concentration for an effect of 90% (IC90) was found to be 3.95 µM. For the same compound, under “PBLUC_HILL_SLOPE 12.1, PBLUC_R_SQUARED 0.351, read-out: LUCIFERASE INFECTION ASSAY - IC50”, the 50% inhibitory concentration (IC50) is 3.29 µM.

On to `CC12CCC(CC1=O)C2(C)C` (stereo not given) [CAMPHOR], for which the 90% effect concentration (IC90) is above 21.7 µM. Besides, the IC50 (FFLUC_HILL_SLOPE 14.9, FFLUC_R_SQUARED 0.342, read-out: LUCIFERASE INFECTION ASSAY - IC50) is above 21.7 µM.

In the case of `O=C(Nc1ccc(OC(F)(F)F)cc1)Nc1ccc2nc(-c3ccco3)nn2c1`, the concentration for an effect of 90% (IC90) was 7.51 µM. For the same compound, the IC50 (PBLUC_HILL_SLOPE 672, PBLUC_R_SQUARED 0.263, read-out: LUCIFERASE INFECTION ASSAY - IC50) was 7.48 µM.

On to `CCCNC(=O)c1c(NC(=O)c2cccc(C(F)(F)F)c2)nc2ccccn12`, for which the 90% effect concentration (IC90) was 0.786 µM. Moreover, the half-maximal inhibitory concentration (IC50) under setting [1] worked out at 0.399 µM.

In the case of `CCN1C(c2ccc(C)cc2)=CS/C1=C(/C#N)c1nnc2n1CCCCC2`, the IC90 was above 10 µM. Besides, the 50% inhibitory concentration (IC50) under setting [1] is above 10 µM.

Consider `CN(C)CCNC(=O)c1ccc(-c2cn3c(-c4ccc5ncccc5c4)cnc3cn2)cc1`, for which the IC90 was above 7.56 µM. Further, the IC50 (HEPG2TOX_HILL_SLOPE 1.62, HEPG2TOX_R_SQUARED 0.706, PBLUC_HILL_SLOPE 13, PBLUC_R_SQUARED 0.311, read-out: LUCIFERASE INFECTION ASSAY - IC50) came to 6.52 µM.

As to `Cc1csc2ncnc(N3CCN(C(=O)Nc4ccc(Cl)c(Cl)c4)CC3)c12`, the 90% effect concentration (IC90) is above 7.81 µM. For the same compound, the IC50 (HEPG2TOX_HILL_SLOPE 0.318, HEPG2TOX_R_SQUARED 0.0791, PBLUC_HILL_SLOPE 1.99, PBLUC_R_SQUARED 0.376, read-out: LUCIFERASE INFECTION ASSAY - IC50) was above 7.81 µM.

Consider `CCC(=O)c1cc(Br)ccc1OC(=O)Cc1coc2cc(C)c(C)cc12`, for which the IC90 stood at 8.33 µM. Further, the IC50 (FFLUC_HILL_SLOPE 11.7, FFLUC_R_SQUARED 0.164, HEPG2TOX_HILL_SLOPE 5.81, HEPG2TOX_R_SQUARED 0.234, PBLUC_HILL_SLOPE 5.23, PBLUC_R_SQUARED 0.568, read-out: LUCIFERASE INFECTION ASSAY - IC50) stood at 5.48 µM.

For the compound `O=S(=O)(c1ccc2ccccc2c1)N1CCCC1c1ccncc1` (stereo not given), the 90% effect concentration (IC90) is above 10 µM. In addition, the IC50 (HEPG2TOX_HILL_SLOPE 4.75, HEPG2TOX_R_SQUARED 0.828, PBLUC_HILL_SLOPE 11, PBLUC_R_SQUARED 0.196, read-out: LUCIFERASE INFECTION ASSAY - IC50) was found to be 9.32 µM.

On to `Cc1ccc(-c2cnc3c(Nc4ccc(NS(=O)(=O)c5ccc(C)cc5)cc4)nccn23)cc1`, for which the concentration for an effect of 90% (IC90) was above 7.03 µM. The 50% inhibitory concentration (IC50) (PBLUC_HILL_SLOPE 0.774, PBLUC_R_SQUARED 0.875, read-out: LUCIFERASE INFECTION ASSAY - IC50) worked out at 1.09 µM.

As to `Cc1cc(CN2CCc3ccccc3C2)c(C)cc1O`, the 90% effect concentration (IC90) was above 10 µM. For the same compound, the concentration for half-maximal inhibition (IC50) (HEPG2TOX_HILL_SLOPE 17.5, HEPG2TOX_R_SQUARED 0.797, read-out: LUCIFERASE INFECTION ASSAY - IC50) was above 10 µM.

Turning to `Cc1cccc(-c2noc(CNC(=O)Cc3ccc(-c4ccccc4)cc3)n2)c1`, the 90% effect concentration (IC90) turned out to be 3.18 µM. For the same compound, for the setting “FFLUC_HILL_SLOPE 13.2, FFLUC_R_SQUARED 0.46, HEPG2TOX_HILL_SLOPE 2.91, HEPG2TOX_R_SQUARED 0.962, PBLUC_HILL_SLOPE 21.5, PBLUC_R_SQUARED 0.134, read-out: LUCIFERASE INFECTION ASSAY - IC50”, the concentration for half-maximal inhibition (IC50) stood at 2.87 µM.

Consider `Cc1cc(Oc2ccc(C(F)(F)F)cc2N=CC(C#N)C#N)cc(C)c1Cl`, for which the IC90 was above 8.42 µM. Further, the half-inhibitory concentration (IC50) under setting [1] is above 8.42 µM.

As to `COc1ccc(C)cc1N(CC(=O)Nc1ccccc1C(=O)NCCc1ccccc1)S(=O)(=O)c1ccccc1`, the IC90 was above 10 µM. Further, the 50% inhibitory concentration (IC50) under setting [1] was above 10 µM.

Turning to `O=C(CSc1nnc(Cc2cccs2)n1C1CCCCC1)c1c[nH]c2ccccc12`, the 90% effect concentration (IC90) is above 10 µM. The concentration for half-maximal inhibition (IC50) under setting [1] was above 10 µM.

Consider `CCOC(=O)c1c(C)nn(-c2ncccc2NC(=O)Nc2cccc(Cl)c2Cl)c1C`, for which the 90% effect concentration (IC90) is above 7.36 µM. Under “HEPG2TOX_HILL_SLOPE 1.28, HEPG2TOX_R_SQUARED 0.665, PBLUC_HILL_SLOPE 11.5, PBLUC_R_SQUARED 0.0917, read-out: LUCIFERASE INFECTION ASSAY - IC50”, the half-inhibitory concentration (IC50) is 6.84 µM.

As to `CCCc1cc(NCc2cccnc2)n2ncc(-c3ccccc3)c2n1`, the IC90 is above 9.61 µM. Also, the half-maximal inhibitory concentration (IC50) (PBLUC_HILL_SLOPE 2.86, PBLUC_R_SQUARED 0.143, read-out: LUCIFERASE INFECTION ASSAY - IC50) was 6.97 µM.

`NC(=O)c1cccc(-c2ccc3ncc(-c4cccnc4)n3n2)c1`: the IC90 stood at 5.41 µM. In addition, the IC50 (HEPG2TOX_HILL_SLOPE 3.58, HEPG2TOX_R_SQUARED 0.988, PBLUC_HILL_SLOPE 1.15, PBLUC_R_SQUARED 0.587, read-out: LUCIFERASE INFECTION ASSAY - IC50) is 0.804 µM.

With `CCCn1c(N)c(C(=O)CN(Cc2ccco2)Cc2cccs2)c(=O)[nH]c1=O`, the concentration for an effect of 90% (IC90) is above 10 µM. Further, where the note is “PBLUC_HILL_SLOPE 2.23, PBLUC_R_SQUARED 0.528, read-out: LUCIFERASE INFECTION ASSAY - IC50”, the IC50 stood at 5.46 µM.

Take `Cc1cccc(-[n+]2c(C)cc(C=C3Sc4ccc5ccccc5c4N3C)cc2C)c1`: the IC90 worked out at 0.685 µM. For the same compound, for the setting “HEPG2TOX_HILL_SLOPE 1.04, HEPG2TOX_R_SQUARED 0.832, PBLUC_HILL_SLOPE 4.15, PBLUC_R_SQUARED 0.768, read-out: LUCIFERASE INFECTION ASSAY - IC50”, the IC50 worked out at 0.403 µM.

For `O=C(Nc1sc2ccccc2c(=O)c1-c1ccccc1)C1CCCCC1`, the IC90 is above 9.08 µM. Under setting [1], the half-inhibitory concentration (IC50) was above 9.08 µM.

In the case of `CN(C)c1ccc(/C=C(\C#N)c2nc3ccccc3[nH]2)cc1`, the 90% effect concentration (IC90) was above 11.4 µM. Besides, the half-inhibitory concentration (IC50) under setting [1] was above 11.4 µM.

With `Cc1onc(-c2ccccc2Cl)c1C(=O)ON=C1C2CC3CC(C2)CC1C3`, the IC90 is above 8.57 µM. For the same compound, for the setting “PBLUC_HILL_SLOPE 2.42, PBLUC_R_SQUARED 0.273, read-out: LUCIFERASE INFECTION ASSAY - IC50”, the 50% inhibitory concentration (IC50) came out at 5.03 µM.

Take `Cc1ccc(CN2C(=O)C(O)(c3c[nH]c4ccccc34)c3ccccc32)c(C)c1` (stereo not given): the 90% effect concentration (IC90) was determined as 6.05 µM. Where the note is “FFLUC_HILL_SLOPE 13.6, FFLUC_R_SQUARED 0.607, PBLUC_HILL_SLOPE 3.72, PBLUC_R_SQUARED 0.631, read-out: LUCIFERASE INFECTION ASSAY - IC50”, the IC50 worked out at 3.35 µM.

With `Cc1occc1C(=O)Nc1ccc(Cl)c(C(F)(F)F)c1`, the 90% effect concentration (IC90) was above 10 µM. In addition, where the note is “PBLUC_HILL_SLOPE 1.47, PBLUC_R_SQUARED 0.656, read-out: LUCIFERASE INFECTION ASSAY - IC50”, the IC50 came out at 6.43 µM.

As for `Cc1cccc(/C=C2\SC(=O)N(CCC(=O)Nc3ccc(-c4nnc5n4CCCCC5)cc3)C2=O)c1`, the IC90 is above 10 µM. In addition, the IC50 under setting [1] was above 10 µM.

For the compound `O=C(/C=C/c1cnn(Cc2ccccc2)c1)N1CCN(Cc2ccc(Cl)cc2)CC1`, the IC90 worked out at 6.97 µM. Further, the IC50 (PBLUC_HILL_SLOPE 126, PBLUC_R_SQUARED 0.0794, read-out: LUCIFERASE INFECTION ASSAY - IC50) came to 6.85 µM.

Consider `O=C(CO/N=C/c1ccc(OCc2ccccc2)c(OCc2ccccc2)c1)N1CCCCCC1`, for which the IC90 is above 10 µM. Moreover, the IC50 (PBLUC_HILL_SLOPE 29.4, PBLUC_R_SQUARED 0.303, read-out: LUCIFERASE INFECTION ASSAY - IC50) was determined as 9.83 µM.

For the compound `CC(=O)Nc1cccc(-c2cc(NC=O)c3ncc(-c4ccc(C(C)=O)cc4)n3c2)c1`, the IC90 is above 8 µM. For the same compound, for the setting “HEPG2TOX_HILL_SLOPE 0.38, HEPG2TOX_R_SQUARED 0.804, PBLUC_HILL_SLOPE 0.536, PBLUC_R_SQUARED 0.0495, read-out: LUCIFERASE INFECTION ASSAY - IC50”, the 50% inhibitory concentration (IC50) is above 8 µM.

On to `S=C(NCc1ccco1)Nc1ccc(Oc2ccc(Cl)cc2)cc1`, for which the 90% effect concentration (IC90) was above 9.2 µM. The half-maximal inhibitory concentration (IC50) under setting [1] is above 9.2 µM.

Consider `CCCN(CCC)Cc1c(O)ccc2c1O/C(=C\c1ccc(OCC)cc1)C2=O`, for which the IC90 was above 8.34 µM. Also, the IC50 (HEPG2TOX_HILL_SLOPE 7.71, HEPG2TOX_R_SQUARED 0.351, PBLUC_HILL_SLOPE 26.6, PBLUC_R_SQUARED 0.241, read-out: LUCIFERASE INFECTION ASSAY - IC50) was found to be 7.9 µM.

Regarding `Cc1ccc(NC(=O)NC(=O)c2c(-c3snnc3C)noc2C)cc1`, the concentration for an effect of 90% (IC90) is above 9.23 µM. Also, the IC50 (HEPG2TOX_HILL_SLOPE 1.11, HEPG2TOX_R_SQUARED 0.954, PBLUC_HILL_SLOPE 1.54, PBLUC_R_SQUARED 0.355, read-out: LUCIFERASE INFECTION ASSAY - IC50) came out at 2.53 µM.
